# Data published in patent US8999940B2 (Ipsen Pharma S.A.S., priority 2008, dated 2015).
# Tests used:
# [1] = target: T1, human recombinant GIP receptor (Homo sapiens, UniProt P48546); experiment: In vitro hGIP receptor binding assay
# T1 construct: expressed in transfected cells; host or cells: CHO-K1 clonal cells (membrane preparation)
# T1 sequence (P48546 22-466): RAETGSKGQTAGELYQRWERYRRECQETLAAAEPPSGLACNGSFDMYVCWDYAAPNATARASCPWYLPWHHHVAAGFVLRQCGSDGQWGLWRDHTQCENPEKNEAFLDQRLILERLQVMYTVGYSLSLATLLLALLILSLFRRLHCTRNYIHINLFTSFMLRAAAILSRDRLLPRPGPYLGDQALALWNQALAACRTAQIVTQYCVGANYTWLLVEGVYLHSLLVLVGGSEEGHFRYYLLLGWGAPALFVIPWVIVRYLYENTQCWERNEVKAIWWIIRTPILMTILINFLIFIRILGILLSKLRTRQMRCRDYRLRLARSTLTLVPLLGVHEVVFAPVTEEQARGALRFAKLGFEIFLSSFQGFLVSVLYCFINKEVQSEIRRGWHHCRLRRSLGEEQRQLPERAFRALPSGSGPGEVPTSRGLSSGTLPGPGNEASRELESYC
# Description: A. In Vitro hGIP Receptor Binding Assay […] The incubations were terminated by rapid filtration through GF/C filters (pre-soaked in 0.5% polyethylenimine) using a Brandel filtration manifold. Each tube and filter were then washed three times with 5-ml aliquots of ice-cold buffer.
# [2] = Human plasma half-life assay; type: in vitro ADME; conditions: 37° C., LC-MS, read-out: Human Plasma T½ (converted)
# [3] = Rat plasma half-life assay; type: in vitro ADME; conditions: 37° C., LC-MS, read-out: Rat Plasma T½ (converted)
smiles,measurement,setting,value
"CC[C@H](C)[C@H](NC(=O)[C@H](CCCCN)NC(=O)[C@H](CC(=O)O)NC(=O)[C@H](CCSC)NC(=O)[C@H](C)NC(=O)[C@@H](NC(=O)C1(NC(=O)[C@H](Cc2ccc(O)cc2)NC(=O)[C@H](CC(=O)O)NC(=O)[C@H](CO)NC(=O)[C@@H](NC(=O)[C@H](Cc2ccccc2)NC(=O)[C@@H](NC(=O)CNC(=O)[C@H](CCC(=O)O)NC(=O)C(C)(C)NC(=O)[C@@H](N)Cc2ccc(OC)cc2)[C@@H](C)O)[C@@H](C)CC)CCCC1)[C@@H](C)CC)C(=O)N[C@@H](Cc1c[nH]cn1)C(=O)N[C@@H](CCC(N)=O)C(=O)N[C@@H](CCC(N)=O)C(=O)N[C@@H](CC(=O)O)C(=O)N[C@@H](Cc1ccccc1)C(=O)N[C@H](C(=O)N[C@@H](CC(N)=O)C(=O)N[C@@H](Cc1c[nH]c2ccccc12)C(=O)N[C@@H](CC(C)C)C(=O)N[C@@H](CC(C)C)C(=O)N[C@@H](C)C(=O)N[C@@H](CCC(N)=O)C(=O)N[C@@H](CCCCN)C(=O)NCC(=O)N[C@@H](CCCCN)C(=O)N[C@@H](CCCCN)C(=O)N[C@@H](CC(N)=O)C(=O)N[C@@H](CC(=O)O)C(=O)N[C@@H](Cc1c[nH]c2ccccc12)C(=O)N[C@@H](CCCCN)C(=O)N[C@@H](Cc1c[nH]cn1)C(=O)N[C@@H](CC(N)=O)C(=O)N[C@H](C(=O)NC1(C(=O)N[C@@H](CCC(N)=O)C(=O)O)CCCC1)[C@@H](C)CC)C(C)C [Example 31, [Tyr(Me)^1, Aib^2, A5c^11, 41]hGIP(1-42)-OH]",Ki,[1],4.5 nM
same,half-life at 0.1 mg/ml,[2],34.8 h
same,half-life at 0.1 mg/ml,[3],9.7 h
"CC[C@H](C)[C@H](NC(=O)[C@H](CCCCN)NC(=O)[C@H](CC(=O)O)NC(=O)[C@H](CCSC)NC(=O)[C@H](C)NC(=O)[C@@H](NC(=O)C1(NC(=O)[C@H](Cc2ccc(O)cc2)NC(=O)[C@H](CC(=O)O)NC(=O)[C@H](CO)NC(=O)[C@@H](NC(=O)[C@H](Cc2ccccc2)NC(=O)[C@@H](NC(=O)CNC(=O)[C@H](CCC(=O)O)NC(=O)C(C)(C)NC(=O)[C@@H](N)Cc2ccc(F)cc2)[C@@H](C)O)[C@@H](C)CC)CCCC1)[C@@H](C)CC)C(=O)N[C@@H](Cc1c[nH]cn1)C(=O)N[C@@H](CCC(N)=O)C(=O)N[C@@H](CCC(N)=O)C(=O)N[C@@H](CC(=O)O)C(=O)N[C@@H](Cc1ccccc1)C(=O)N[C@H](C(=O)N[C@@H](CC(N)=O)C(=O)N[C@@H](Cc1c[nH]c2ccccc12)C(=O)N[C@@H](CC(C)C)C(=O)N[C@@H](CC(C)C)C(=O)N[C@@H](C)C(=O)N[C@@H](CCC(N)=O)C(=O)N[C@@H](CCCCN)C(=O)NCC(=O)N[C@@H](CCCCN)C(=O)N[C@@H](CCCCN)C(=O)N[C@@H](CC(N)=O)C(=O)N[C@@H](CC(=O)O)C(=O)N[C@@H](Cc1c[nH]c2ccccc12)C(=O)N[C@@H](CCCCN)C(=O)N[C@@H](Cc1c[nH]cn1)C(=O)N[C@@H](CC(N)=O)C(=O)N[C@H](C(=O)NC1(C(=O)N[C@@H](CCC(N)=O)C(=O)O)CCCC1)[C@@H](C)CC)C(C)C [Example 32, (4F-Phe^1, Aib^2, A5c^11, 41)hGIP(1-42)-OH]",Ki,[1],5.82 nM
same,half-life at 0.1 mg/ml,[2],23.9 h
same,half-life at 0.1 mg/ml,[3],> 61 h
"CC[C@H](C)[C@H](NC(=O)[C@H](CCCCN)NC(=O)[C@H](CC(=O)O)NC(=O)[C@H](CCSC)NC(=O)[C@H](C)NC(=O)[C@@H](NC(=O)C1(NC(=O)[C@H](Cc2ccc(O)cc2)NC(=O)[C@H](CC(=O)O)NC(=O)[C@H](CO)NC(=O)[C@@H](NC(=O)[C@H](Cc2ccccc2)NC(=O)[C@@H](NC(=O)CNC(=O)[C@H](CCC(=O)O)NC(=O)C(C)(C)NC(=O)[C@@H](N)Cc2ccncc2)[C@@H](C)O)[C@@H](C)CC)CCCC1)[C@@H](C)CC)C(=O)N[C@@H](Cc1c[nH]cn1)C(=O)N[C@@H](CCC(N)=O)C(=O)N[C@@H](CCC(N)=O)C(=O)N[C@@H](CC(=O)O)C(=O)N[C@@H](Cc1ccccc1)C(=O)N[C@H](C(=O)N[C@@H](CC(N)=O)C(=O)N[C@@H](Cc1c[nH]c2ccccc12)C(=O)N[C@@H](CC(C)C)C(=O)N[C@@H](CC(C)C)C(=O)N[C@@H](C)C(=O)N[C@@H](CCC(N)=O)C(=O)N[C@@H](CCCCN)C(=O)NCC(=O)N[C@@H](CCCCN)C(=O)N[C@@H](CCCCN)C(=O)N[C@@H](CC(N)=O)C(=O)N[C@@H](CC(=O)O)C(=O)N[C@@H](Cc1c[nH]c2ccccc12)C(=O)N[C@@H](CCCCN)C(=O)N[C@@H](Cc1c[nH]cn1)C(=O)N[C@@H](CC(N)=O)C(=O)N[C@H](C(=O)NC1(C(=O)N[C@@H](CCC(N)=O)C(=O)O)CCCC1)[C@@H](C)CC)C(C)C [Example 33, (4-Pal^1, Aib^2, A5c^11, 41)hGIP(1-42)-OH]",Ki,[1],8.14 nM
same,half-life at 0.1 mg/ml,[2],32.8 h
same,half-life at 0.1 mg/ml,[3],15.5 h
"CC[C@H](C)[C@H](NC(=O)[C@H](CCCCN)NC(=O)[C@H](CC(=O)O)NC(=O)[C@H](CCSC)NC(=O)[C@H](C)NC(=O)[C@@H](NC(=O)C1(NC(=O)[C@H](Cc2ccc(O)cc2)NC(=O)[C@H](CC(=O)O)NC(=O)[C@H](CO)NC(=O)[C@@H](NC(=O)[C@H](Cc2ccccc2)NC(=O)[C@@H](NC(=O)CNC(=O)[C@H](CCC(=O)O)NC(=O)C(C)(C)NC(=O)[C@@H](N)Cc2cccnc2)[C@@H](C)O)[C@@H](C)CC)CCCC1)[C@@H](C)CC)C(=O)N[C@@H](Cc1c[nH]cn1)C(=O)N[C@@H](CCC(N)=O)C(=O)N[C@@H](CCC(N)=O)C(=O)N[C@@H](CC(=O)O)C(=O)N[C@@H](Cc1ccccc1)C(=O)N[C@H](C(=O)N[C@@H](CC(N)=O)C(=O)N[C@@H](Cc1c[nH]c2ccccc12)C(=O)N[C@@H](CC(C)C)C(=O)N[C@@H](CC(C)C)C(=O)N[C@@H](C)C(=O)N[C@@H](CCC(N)=O)C(=O)N[C@@H](CCCCN)C(=O)NCC(=O)N[C@@H](CCCCN)C(=O)N[C@@H](CCCCN)C(=O)N[C@@H](CC(N)=O)C(=O)N[C@@H](CC(=O)O)C(=O)N[C@@H](Cc1c[nH]c2ccccc12)C(=O)N[C@@H](CCCCN)C(=O)N[C@@H](Cc1c[nH]cn1)C(=O)N[C@@H](CC(N)=O)C(=O)N[C@H](C(=O)NC1(C(=O)N[C@@H](CCC(N)=O)C(=O)O)CCCC1)[C@@H](C)CC)C(C)C [Example 34, (3-Pal^1, Aib^2, A5c^11, 41)hGIP(1-42)-OH]",Ki,[1],9.75 nM
same,half-life at 0.1 mg/ml,[2],> 63 h
same,half-life at 0.1 mg/ml,[3],16.3 h
"CC[C@H](C)[C@H](NC(=O)[C@H](CCCCN)NC(=O)[C@H](CC(=O)O)NC(=O)[C@H](CCSC)NC(=O)[C@H](C)NC(=O)[C@@H](NC(=O)C1(NC(=O)[C@H](Cc2ccc(O)cc2)NC(=O)[C@H](CC(=O)O)NC(=O)[C@H](CO)NC(=O)[C@@H](NC(=O)[C@H](Cc2ccccc2)NC(=O)[C@@H](NC(=O)CNC(=O)[C@H](CCC(=O)O)NC(=O)C(C)(C)NC(=O)[C@@H](N)Cc2cscn2)[C@@H](C)O)[C@@H](C)CC)CCCC1)[C@@H](C)CC)C(=O)N[C@@H](Cc1c[nH]cn1)C(=O)N[C@@H](CCC(N)=O)C(=O)N[C@@H](CCC(N)=O)C(=O)N[C@@H](CC(=O)O)C(=O)N[C@@H](Cc1ccccc1)C(=O)N[C@H](C(=O)N[C@@H](CC(N)=O)C(=O)N[C@@H](Cc1c[nH]c2ccccc12)C(=O)N[C@@H](CC(C)C)C(=O)N[C@@H](CC(C)C)C(=O)N[C@@H](C)C(=O)N[C@@H](CCC(N)=O)C(=O)N[C@@H](CCCCN)C(=O)NCC(=O)N[C@@H](CCCCN)C(=O)N[C@@H](CCCCN)C(=O)N[C@@H](CC(N)=O)C(=O)N[C@@H](CC(=O)O)C(=O)N[C@@H](Cc1c[nH]c2ccccc12)C(=O)N[C@@H](CCCCN)C(=O)N[C@@H](Cc1c[nH]cn1)C(=O)N[C@@H](CC(N)=O)C(=O)N[C@H](C(=O)NC1(C(=O)N[C@@H](CCC(N)=O)C(=O)O)CCCC1)[C@@H](C)CC)C(C)C [Example 35, (Taz^1, Aib^2, A5c^11, 41)hGIP(1-42)-OH]",Ki,[1],3.28 nM
same,half-life at 0.1 mg/ml,[2],74.5 h
same,half-life at 0.1 mg/ml,[3],50.6 h
"CC[C@H](C)[C@H](NC(=O)[C@H](CCCCN)NC(=O)[C@H](CC(=O)O)NC(=O)[C@H](CCSC)NC(=O)[C@H](C)NC(=O)[C@@H](NC(=O)C1(NC(=O)[C@H](Cc2ccc(O)cc2)NC(=O)[C@H](CC(=O)O)NC(=O)[C@H](CO)NC(=O)[C@@H](NC(=O)[C@H](Cc2ccccc2)NC(=O)[C@@H](NC(=O)CNC(=O)[C@H](CCC(=O)O)NC(=O)C(C)(C)NC(=O)[C@@H](N)Cc2ccc(O)c([N+](=O)[O-])c2)[C@@H](C)O)[C@@H](C)CC)CCCC1)[C@@H](C)CC)C(=O)N[C@@H](Cc1c[nH]cn1)C(=O)N[C@@H](CCC(N)=O)C(=O)N[C@@H](CCC(N)=O)C(=O)N[C@@H](CC(=O)O)C(=O)N[C@@H](Cc1ccccc1)C(=O)N[C@H](C(=O)N[C@@H](CC(N)=O)C(=O)N[C@@H](Cc1c[nH]c2ccccc12)C(=O)N[C@@H](CC(C)C)C(=O)N[C@@H](CC(C)C)C(=O)N[C@@H](C)C(=O)N[C@@H](CCC(N)=O)C(=O)N[C@@H](CCCCN)C(=O)NCC(=O)N[C@@H](CCCCN)C(=O)N[C@@H](CCCCN)C(=O)N[C@@H](CC(N)=O)C(=O)N[C@@H](CC(=O)O)C(=O)N[C@@H](Cc1c[nH]c2ccccc12)C(=O)N[C@@H](CCCCN)C(=O)N[C@@H](Cc1c[nH]cn1)C(=O)N[C@@H](CC(N)=O)C(=O)N[C@H](C(=O)NC1(C(=O)N[C@@H](CCC(N)=O)C(=O)O)CCCC1)[C@@H](C)CC)C(C)C [Example 36, (3NO2-Tyr^1, Aib^2, A5c^11, 41)hGIP(1-42)-OH]",Ki,[1],11.2 nM
same,half-life at 0.1 mg/ml,[2],> 72 h
same,half-life at 0.1 mg/ml,[3],11.7 h
